The text below walks through data of the supplement of paper PMC11208160.
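Further: IS621 recombinase and bridge RNA in Escherichia coli cells.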

A short description of this data set: recombinant barcode read abundance after kanamycin selection (control-corrected) (log10(CPM+1)); higher = more efficient recombination; sequences stand for … in AGTGCAGAGAAAATCGGCCAGTTTTCTCTGCCTGCAGTCCGCATGCCGT…AGATTTATGCAGCGGACTGCCTTTCTCCCAAAGTGATAAACCGGACAGTATCATGGACCGGTTTTCCCGGTAATCCGTATTTGCAAGGTTGGTTTCACT; site = the 11-nt target. A digest of the protocol: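 Recombination efficiency was calculated from barcode counts at recombinant junctions, normalized to counts per million, averaged and corrected by the control. Each value is given as log10(CPM+1). The constructs were Gibson-cloned oligos (promoter, target, barcode, J23119-driven first 104 bridge RNA bases) in a vector with the remaining 73 bp and a T7-inducible recombinase, co-electroporated into E. coli with a donor plasmid and plated in duplicate on chloramphenicol/ampicillin LB agar (control) or chloramphenicol/ampicillin/kanamycin with 0.1 mM IPTG.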
As to “GTAAGCACTTGGGTTCTAACCTGTTGCTT (site GTAAGAACTAA)”, the “recombinant barcode read abundance (log10)” value is 0.0561.

In the case of “GTAAGCACTTGGGTTCTAACCTGTTGCTT (site GTAAGCACTAA)”, the “recombinant barcode read abundance (log10)” value came out at 0.18.

Consider “GTAAGCACTTGGGTTCTAACCTGTTGCTT (site GTAAGGACTAA)”, for which the “recombinant barcode read abundance (log10)” value came out at 0.0207.

Regarding “GTAAGCACTTGGGTTCTAACCTGTTGCTT (site GTAAGTACTAA)”, the “recombinant barcode read abundance (log10)” value amounted to 0.242.

Regarding “GTAAGCTCTTGGGTTCTAACCTGTTGCCT (site ATAAGCTCTAG)”, the “recombinant barcode read abundance (log10)” value was determined as 1.34.

Take “GTAAGCTCTTGGGTTCTAACCTGTTGCCT (site CTAAGCTCTAG)”: the “recombinant barcode read abundance (log10)” value was determined as 0.349.

In the case of “GTAAGCTCTTGGGTTCTAACCTGTTGCCT (site GTAAGCTCTAG)”, the “recombinant barcode read abundance (log10)” value worked out at 2.15.

Consider “GTAAGCTCTTGGGTTCTAACCTGTTGCCT (site TTAAGCTCTAG)”, for which the “recombinant barcode read abundance (log10)” value is 0.932.

For “GTAAGTACTTGGGTTCTAACCTGTTGCGG (site AGAAGTACTCC)”, the “recombinant barcode read abundance (log10)” value came out at 0.

Regarding “GTAAGTACTTGGGTTCTAACCTGTTGCGG (site GTAAGTACTCC)”, the “recombinant barcode read abundance (log10)” value came to 2.06.

With “GTACAAGCTTGGGTTCTAACCTGTTGCCT (site AGGAGTCCTCT)”, the “recombinant barcode read abundance (log10)” value was found to be 0.102.

As for “GTACAAGCTTGGGTTCTAACCTGTTGCCT (site GTACAAGCTAG)”, the “recombinant barcode read abundance (log10)” value was 1.08.

As for “GTACCGCCTTGGGTTCTAACCTGTTGCCT (site GTACAGCCTAG)”, the “recombinant barcode read abundance (log10)” value was found to be 0.483.

As for “GTACCGCCTTGGGTTCTAACCTGTTGCCT (site GTACCGCCTAG)”, the “recombinant barcode read abundance (log10)” value was found to be 1.01.

“GTACCGCCTTGGGTTCTAACCTGTTGCCT (site GTACGGCCTAG)”: the “recombinant barcode read abundance (log10)” value was 0.122.

For “GTACCGCCTTGGGTTCTAACCTGTTGCCT (site GTACTGCCTAG)”, the “recombinant barcode read abundance (log10)” value turned out to be 0.29.

On to “GTACCTTCTTGGGTTCTAACCTGTTGCCT (site GGAGCTTCTAG)”, for which the “recombinant barcode read abundance (log10)” value was 0.0858.

For the sequence “GTACCTTCTTGGGTTCTAACCTGTTGCCT (site GTACCTTCTAG)”, the “recombinant barcode read abundance (log10)” value is 1.08.

Take “GTACGATCTTGGGTTCTAACCTGTTGCAA (site GTACGATCTTT)”: the “recombinant barcode read abundance (log10)” value was 0.962.

“GTACGATCTTGGGTTCTAACCTGTTGCAA (site GTACGGTCTAT)”: the “recombinant barcode read abundance (log10)” value worked out at 0.291.

Regarding “GTACGATCTTGGGTTCTAACCTGTTGCGG (site CCTTCTCCTAT)”, the “recombinant barcode read abundance (log10)” value was 0.0115.

On to “GTACGATCTTGGGTTCTAACCTGTTGCGG (site GTACGATCTCC)”, for which the “recombinant barcode read abundance (log10)” value worked out at 0.753.

In the case of “GTACGGCCTTGGGTTCTAACCTGTTGCCT (site GTACAGCCTAG)”, the “recombinant barcode read abundance (log10)” value stood at 0.453.

“GTACGGCCTTGGGTTCTAACCTGTTGCCT (site GTACCGCCTAG)”: the “recombinant barcode read abundance (log10)” value is 0.0984.

With “GTACGGCCTTGGGTTCTAACCTGTTGCCT (site GTACGGCCTAG)”, the “recombinant barcode read abundance (log10)” value turned out to be 0.319.

Consider “GTACGGCCTTGGGTTCTAACCTGTTGCCT (site GTACTGCCTAG)”, for which the “recombinant barcode read abundance (log10)” value stood at 0.0887.

On to “GTACTCTCTTGGGTTCTAACCTGTTGCCA (site GAACTGTCTTG)”, for which the “recombinant barcode read abundance (log10)” value turned out to be 0.143.

Turning to “GTACTCTCTTGGGTTCTAACCTGTTGCCA (site GTACTCTCTTG)”, the “recombinant barcode read abundance (log10)” value stood at 1.38.

Turning to “GTAGCACCTTGGGTTCTAACCTGTTGCTT (site GTAGCACCTAA)”, the “recombinant barcode read abundance (log10)” value was found to be 1.72.

As to “GTAGCACCTTGGGTTCTAACCTGTTGCTT (site GTATGACCTAA)”, the “recombinant barcode read abundance (log10)” value is 0.323.

With “GTAGGTCCTTGGGTTCTAACCTGTTGCCG (site GTAGGTCCTCG)”, the “recombinant barcode read abundance (log10)” value was 2.48.

In the case of “GTAGGTCCTTGGGTTCTAACCTGTTGCCG (site TACAACACTAC)”, the “recombinant barcode read abundance (log10)” value is 0.0369.

As for “GTAGTAACTTGGGTTCTAACCTGTTGCCT (site GTAGTAACTAG)”, the “recombinant barcode read abundance (log10)” value is 2.12.

“GTAGTAACTTGGGTTCTAACCTGTTGCCT (site GTAGTACCTAG)”: the “recombinant barcode read abundance (log10)” value is 0.104.

On to “GTAGTAACTTGGGTTCTAACCTGTTGCCT (site GTAGTAGCTAG)”, for which the “recombinant barcode read abundance (log10)” value stood at 0.206.

As to “GTAGTAACTTGGGTTCTAACCTGTTGCCT (site GTAGTATCTAG)”, the “recombinant barcode read abundance (log10)” value stood at 0.0374.

For the sequence “GTAGTTCCTTGGGTTCTAACCTGTTGCCT (site GTAGTTCCTAG)”, the “recombinant barcode read abundance (log10)” value is 1.6.

For the sequence “GTAGTTCCTTGGGTTCTAACCTGTTGCCT (site GTCGTTCCTAG)”, the “recombinant barcode read abundance (log10)” value was 0.0557.

With “GTATACCCTTGGGTTCTAACCTGTTGCCA (site GTATACCCTAT)”, the “recombinant barcode read abundance (log10)” value was found to be 0.498.

For the sequence “GTATACCCTTGGGTTCTAACCTGTTGCCA (site GTATACCCTTG)”, the “recombinant barcode read abundance (log10)” value was 1.27.

On to “GTATATACTTGGGTTCTAACCTGTTGCCT (site GTATATACTAG)”, for which the “recombinant barcode read abundance (log10)” value came to 0.902.

As for “GTATATACTTGGGTTCTAACCTGTTGCCT (site GTCTATACTAG)”, the “recombinant barcode read abundance (log10)” value is 0.112.

“GTATATACTTGGGTTCTAACCTGTTGCCT (site GTGTATACTAG)”: the “recombinant barcode read abundance (log10)” value was found to be 0.241.

Regarding “GTATATACTTGGGTTCTAACCTGTTGCCT (site GTTTATACTAG)”, the “recombinant barcode read abundance (log10)” value was found to be 0.00506.

Consider “GTATCAGCTTGGGTTCTAACCTGTTGCCT (site GTATCAACTAG)”, for which the “recombinant barcode read abundance (log10)” value turned out to be 0.181.

For “GTATCAGCTTGGGTTCTAACCTGTTGCCT (site GTATCACCTAG)”, the “recombinant barcode read abundance (log10)” value was 0.226.

“GTATCAGCTTGGGTTCTAACCTGTTGCCT (site GTATCAGCTAG)”: the “recombinant barcode read abundance (log10)” value was found to be 1.25.

In the case of “GTATCAGCTTGGGTTCTAACCTGTTGCCT (site GTATCATCTAG)”, the “recombinant barcode read abundance (log10)” value came out at 0.0176.

On to “GTATGAACTTGGGTTCTAACCTGTTGCCT (site GTATGAACTAG)”, for which the “recombinant barcode read abundance (log10)” value came to 1.44.

Regarding “GTATGAACTTGGGTTCTAACCTGTTGCCT (site GTATGACCTAG)”, the “recombinant barcode read abundance (log10)” value was 0.121.

Consider “GTATGAACTTGGGTTCTAACCTGTTGCCT (site GTATGAGCTAG)”, for which the “recombinant barcode read abundance (log10)” value was found to be 0.384.

Regarding “GTATGAACTTGGGTTCTAACCTGTTGCCT (site GTATGATCTAG)”, the “recombinant barcode read abundance (log10)” value worked out at 0.119.

For “GTATGACCTTGGGTTCTAACCTGTTGCTT (site GTAGCACCTAA)”, the “recombinant barcode read abundance (log10)” value is 0.0633.

On to “GTATGACCTTGGGTTCTAACCTGTTGCTT (site GTATGACCTAA)”, for which the “recombinant barcode read abundance (log10)” value is 1.54.

Take “GTATGAGCTTGGGTTCTAACCTGTTGCTG (site ATTTGAGCTCA)”: the “recombinant barcode read abundance (log10)” value was determined as 0.288.

On to “GTATGAGCTTGGGTTCTAACCTGTTGCTG (site GTATGAGCTCA)”, for which the “recombinant barcode read abundance (log10)” value was determined as 1.51.

Take “GTATGATCTTGGGTTCTAACCTGTTGCAT (site GTATGATCTAT)”: the “recombinant barcode read abundance (log10)” value is 0.807.

For “GTATGATCTTGGGTTCTAACCTGTTGCAT (site GTATGTACTAT)”, the “recombinant barcode read abundance (log10)” value is 0.106.

On to “GTATGATCTTGGGTTCTAACCTGTTGCCT (site GTATGAACTAG)”, for which the “recombinant barcode read abundance (log10)” value turned out to be 0.026.

In the case of “GTATGATCTTGGGTTCTAACCTGTTGCCT (site GTATGACCTAG)”, the “recombinant barcode read abundance (log10)” value was 0.0755.

For “GTATGATCTTGGGTTCTAACCTGTTGCCT (site GTATGAGCTAG)”, the “recombinant barcode read abundance (log10)” value came to 0.742.

For “GTATGATCTTGGGTTCTAACCTGTTGCCT (site GTATGATCTAG)”, the “recombinant barcode read abundance (log10)” value was 1.45.

Turning to “GTATGGACTTGGGTTCTAACCTGTTGCAA (site CATCAAGCTAG)”, the “recombinant barcode read abundance (log10)” value came out at 0.138.

Take “GTATGGACTTGGGTTCTAACCTGTTGCAA (site GTATGGACTTT)”: the “recombinant barcode read abundance (log10)” value stood at 1.32.

For “GTATGTGCTTGGGTTCTAACCTGTTGCGG (site GTATGAGCTCC)”, the “recombinant barcode read abundance (log10)” value was determined as 0.689.

“GTATGTGCTTGGGTTCTAACCTGTTGCGG (site GTATGTGCTCC)”: the “recombinant barcode read abundance (log10)” value was 2.84.

In the case of “GTATTTCCTTGGGTTCTAACCTGTTGCTT (site GTATCTCCTAA)”, the “recombinant barcode read abundance (log10)” value was found to be 0.0837.

Turning to “GTATTTCCTTGGGTTCTAACCTGTTGCTT (site GTATTTCCTAA)”, the “recombinant barcode read abundance (log10)” value worked out at 0.782.

For the sequence “GTCAAGACTTGGGTTCTAACCTGTTGCCA (site GTCAAGACTCG)”, the “recombinant barcode read abundance (log10)” value was 0.3.

As for “GTCAAGACTTGGGTTCTAACCTGTTGCCA (site GTCAAGACTTG)”, the “recombinant barcode read abundance (log10)” value is 1.03.

Take “GTCACCTCTTGGGTTCTAACCTGTTGCTA (site GTAACCTCTGA)”: the “recombinant barcode read abundance (log10)” value was 0.217.

On to “GTCACCTCTTGGGTTCTAACCTGTTGCTA (site GTCACCTCTTA)”, for which the “recombinant barcode read abundance (log10)” value came to 1.58.

For the sequence “GTCACTACTTGGGTTCTAACCTGTTGCAT (site AAGGTACCTCC)”, the “recombinant barcode read abundance (log10)” value came to 0.139.

With “GTCACTACTTGGGTTCTAACCTGTTGCAT (site GTCACTACTAT)”, the “recombinant barcode read abundance (log10)” value was 0.381.

Take “GTCAGCTCTTGGGTTCTAACCTGTTGCTA (site GACCGCTCTTA)”: the “recombinant barcode read abundance (log10)” value amounted to 0.127.

With “GTCAGCTCTTGGGTTCTAACCTGTTGCTA (site GTCAGCTCTTA)”, the “recombinant barcode read abundance (log10)” value turned out to be 1.16.

Consider “GTCATACCTTGGGTTCTAACCTGTTGCCT (site GTCATACCTAG)”, for which the “recombinant barcode read abundance (log10)” value was 1.02.
